Test results reported in patent publication US4963552A, “1-substitute-1,2-dihydro-4-((substituted)phenyl)imidazo-[1,5-a] pyrimidine-8-carbonitriles” (American Cyanamid Company, priority 1989, dated 1990).
Where a name gives a salt, the structure may show the parent alone.

Columns and labels:
[1] = system: spontaneously hypertensive rats of the Okamoto strain; test: Reduction of mean arterial blood pressure in spontaneously hypertensive rats; type: in vivo, rat; conditions: second identical dose at 24 h, measured at 28 h, male SHR, average MABP 160±1.5 mm of mercury
Method: These compounds were tested for hypotensive activity by the method of P. S. Chan and D. W. Poorvin, Clinical and Experimental Hypertension, 1 (6), 817-830 (1979). Male, 16 week old, spontaneously hypertensive rats of the Okamoto strain having an average mean arterial blood pressure of 160±1.5 mm of mercury are used in the test. One to three rats are used per test compound. The test compound is suspended in 2% pre-boiled starch at a concentration of 50 mg/ml, and a rat is dosed by gavage at a dose of 100 mg/kg of body weight or less, with 0.9% sodium chloride loading at a dose of 25 ml/kg of body weight. A second identical dose of the test compound, without sodium chloride loading, is given 24 hours later. At 28 hours after the initial dose the mean arterial blood pressure is measured by the method of Chan and Poorvin vide supra. The procedure is repeated in a second and third rat when necessary.

[2] = target: T1, [^3 H]-imipramine receptor (human platelet membranes) (Homo sapiens, UniProt P31645); test: Inhibition of [^3 H]-imipramine binding to human platelet membranes; conditions: 10 μm test compound, 90 minutes at 0° C., duplicate, more than 50% considered active; for inhibition at 10 µM: 1.5 h
T1 construct: Platelet membranes were obtained using the procedure described by Wennogle, L. P., et al; tissue New York Blood Center; host or cells: human platelets (washed, sonicated membranes)
T1 sequence (P31645 whole entry): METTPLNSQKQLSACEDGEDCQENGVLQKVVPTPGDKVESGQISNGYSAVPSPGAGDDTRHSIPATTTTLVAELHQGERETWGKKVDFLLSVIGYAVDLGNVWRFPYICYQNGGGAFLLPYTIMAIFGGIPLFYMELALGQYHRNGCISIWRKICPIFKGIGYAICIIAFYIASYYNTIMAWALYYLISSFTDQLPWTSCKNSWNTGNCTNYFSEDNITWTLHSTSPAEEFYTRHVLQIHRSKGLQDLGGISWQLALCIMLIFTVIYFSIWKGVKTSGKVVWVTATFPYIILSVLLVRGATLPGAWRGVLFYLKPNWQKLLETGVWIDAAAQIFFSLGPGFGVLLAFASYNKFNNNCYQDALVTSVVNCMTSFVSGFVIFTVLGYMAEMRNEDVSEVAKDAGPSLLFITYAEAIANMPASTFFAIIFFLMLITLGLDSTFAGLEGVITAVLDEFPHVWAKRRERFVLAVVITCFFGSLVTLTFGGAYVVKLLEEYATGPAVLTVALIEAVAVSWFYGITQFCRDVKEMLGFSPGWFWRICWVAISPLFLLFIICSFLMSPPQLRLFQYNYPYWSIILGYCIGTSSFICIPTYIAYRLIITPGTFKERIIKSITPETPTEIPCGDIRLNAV
Method: The activity of the compounds of this invention as antidepressant agents was verified in the following test which measures the ability of a test compound to inhibit [^3 H]-imipramine binding to human platelet membranes.
Platelet membranes were obtained using the procedure described by Wennogle, L. P., et al., Pharmac. Biochem Behav., 15, 975 (1981). Fresh human platelet concentrates(less than 48 hours old) were obtained from the New York Blood Center. These concentrates were prepared in a citrate-dextrose anticoagulant using standard techniques. Platelets were washed twice by centrifugation (2500 x G, 10 minutes) in 50 volumes of an antiprotease buffer containing 0.005M potassium chloride, 0.12M sodium chloride, 0.05M Tris pH 7.5, 0.025 Units/ml aprotinin, 0.5 μg/m pepstatin, […] bacitracin, 3 mM ethylenediaminetetraacetic acid and 1.0 mM ethylene glycol-bis(β-aminoethyl ether)-N,N'-tetraacetic acid. […] All procedures were conducted at 0° C. using plastic laboratory ware throughout the platelet membrane preparation. Platelets were resuspended in 20 volumes of buffer and sonicated 3 times using 10 second bursts of a Branson sonifier (cell disrupter 350) at setting 6 (standard 3/4 inch horn), keeping the sample on ice throughout the procedure. Platelet membranes were then washed twice at 18,000 x G for 20 minutes with 50 volumes of the antiprotease buffer and resuspended to 3.0 mg protein/ml using the Bradford protein analysis with bovine gamma globulin as standard. Membranes were used immediately or stored frozen in liquid nitrogen.
The displacement of [^3 H]-imipramine binding to human platelet membranes was performed essentially as described by Paul, S. M., et al , Life Sci., 26, 953 (1980) with the following modifications. Membranes (0.3 mg protein) were suspended in antiprotease buffer with both […] [^3 H]-imipramine (New England Nuclear) and displacing drug or buffer in a total volume of 250 μl in glass test tubes. Samples were incubated for 90 minutes at 0° C., then diluted to 5 ml in […] sodium chloride, 0.005M potassium chloride, 0.05 Tris pH 7.5 (wash buffer) and immediately filtered through GF/B Whatman Filters and washed twice with 5 ml of wash buffer. Filters were counted in a liquid scintillation counter after addition of Beckman Hp Scintillant.
Non-specific binding of [^3 H]-imipramine was defined as that fraction (generally 35%) of radioactivity that was not displaced by 10 μm desmethylimipramine. Specific binding was determined by subtraction of this non-specific level from values for total [^3 H]-imipramine binding which were measured by incubating [^3 H]-imipramine in the absence of displacing drug. Compounds were tested in duplicate test tubes at a concentration of 10 μm. Compounds which inhibited binding by more than 50% were considered to be active.

Row | SMILES | inhibition at 10 µM [2] [%] | MABP/mm Hg (mean arterial blood pressure) ([1]; 100 mg/kg by gavage) [mm Hg] | also measured
1 | CC(C)N1CCN(CCC(=O)N2CC=C(c3cccc(C(F)(F)F)c3)n3cnc(C#N)c32)CC1 [Example 24, 1,2-Dihydro-1-[3-[4-(1-methylethyl)-1-piperazinyl]-1-oxopropyl]-4-[3-(trifluoromethyl)phenyl]imidazo[1,5-a]pyrimidine-8-carbonitrile] |  |  | MABP/mm Hg (mean arterial blood pressure) ([1]; 50 mg/kg by gavage): 133 mm Hg
2 | N#Cc1ncn2c1N(C(=O)CCN1CCN(c3ccc(F)cc3)CC1)CC=C2c1cccc(C(F)(F)F)c1 [Example 16, 1-[3-[4-(4-Fluorophenyl)-1-piperazinyl]-1-oxopropyl]-1,2-dihydro-4-[3-(trifluoromethyl)phenyl]imidazo[1,5-a]pyrimidine-8-carbonitrile] | 78 | 110 | 
3 | N#Cc1ncn2c1N(C(=O)CCN1CCN(CCCOc3ccccc3)CC1)CC=C2c1cccc(C(F)(F)F)c1 [Example 21, 1,2-Dihydro-1-[1-oxo-3-[4-(3-phenoxypropyl)-1-piperazinyl]propyl]-4-[3-(trifluoromethyl)phenyl]imidazo[1,5-a]pyrimidine-8-carbonitrile] | 66 |  | 
4 | N#Cc1ncn2c1N(C(=O)CN1CCN(c3ccc(Cl)cc3)CC1)CC=C2c1cccc(C(F)(F)F)c1 [Example 13, 1-[[4-(4-Chlorophenyl)-1-piperazinyl]acetyl]-1,2-dihydro-4-[3-(trifluoromethyl)phenyl]imidazo[1,5-a]pyrimidine-8-carbonitrile] |  | 137 | 
5 | COc1cccc(CN2CCN(CC(=O)N3CC=C(c4cccc(C(F)(F)F)c4)n4cnc(C#N)c43)CC2)c1 [Example 6, 1,2-Dihydro-1-[[4-[(3-methoxyphenyl)methyl]-1-piperazinyl]acetyl]-4-[3-trifluoromethyl)phenyl]imidazo[1,5-a]pyrimidine-8-carbonitrile, dihydrochloride] | 75 |  | 
6 | N#Cc1ncn2c1N(C(=O)CN1CCN(C(c3ccccc3)c3ccc(Cl)cc3)CC1)CC=C2c1cccc(C(F)(F)F)c1 (stereo not shown) [Example 10, 1-[[4-[(4-Chlorophenyl)phenylmethyl]-1-piperazinyl]acetyl]-1,2-dihydro-4-[3-(trifluoromethyl)phenyl]imidazo[1,5-a]pyrimidine-8-carbonitrile] |  | 137 | 
7 | N#Cc1ncn2c1N(C(=O)CN1CCN(CCCOc3ccccc3)CC1)CC=C2c1cccc(C(F)(F)F)c1 [Example 9, 1,2-Dihydro-1-[[4-(3-phenoxypropyl)-1-piperazinyl]acetyl]-4-[3-(trifluoromethyl)phenyl]imidazo[1,5-a]pyrimidine-8-carbonitrile] | 50 | 130 | 
8 | COc1ccc(Cl)cc1NCC(=O)N1CC=C(c2cccc(C(F)(F)F)c2)n2cnc(C#N)c21 [1-[[(5-Chloro-2-methoxyphenyl)amino]acetyl]-1,2-dihydro-4-[3-(trifluoromethyl)phenyl]imidazo[1,5-a]pyrimidine-8-carbonitrile] |  | 135 | 
9 | N#Cc1ncn2c1N(C(=O)CN1CCN(Cc3ccc(Cl)cc3)CC1)CC=C2c1cccc(C(F)(F)F)c1 [Example 11, 1-[[4-[(4-Chlorophenyl)methyl]-1-piperazinyl]acetyl]-1,2-dihydro-4-[3-(trifluoromethyl)phenyl]imidazo[1,5-a]pyrimidine-8-carbonitrile] | 93 |  | 
10 | CCOC(=O)N1CCN(CCC(=O)N2CC=C(c3cccc(C(F)(F)F)c3)n3cnc(C#N)c32)CC1.Cl [Example 19, 4-[3-[8-Cyano-4-[3-(trifluoromethyl)phenyl]imidazo[1,5-a]pyrimidine-1(2H)-yl]-3-oxopropyl]-1-piperazinecarboxylic acid, ethyl ester monohydrochloride] |  | 134 | 
11 | N#Cc1ncn2c1N(C(=O)CCN1CCN(c3ccc(Cl)cc3)CC1)CC=C2c1cccc(C(F)(F)F)c1 [Example 18, 1-[3-[4-(4-Chlorophenyl)-1-piperazinyl]-1-oxopropyl]-1,2-dihydro-4-[3-(trifluoromethyl)phenyl]imidazo[1,5-a]pyrimidine-8-carbonitrile] | 53 | 118 | 
12 | N#Cc1ncn2c1N(C(=O)CCN1CCN(Cc3ccccc3)CC1)CC=C2c1cccc(C(F)(F)F)c1 [Example 22, 1,2-Dihydro-1-[1-oxo-3-[(4-phenylmethyl)-1-piperazinyl]propyl]-4-[3-(trifluoromethyl)phenyl]imidazo[1,5-a]pyrimidine-8-carbonitrile] | 61 |  | 
13 | C#CCN1CCN(CC(=O)N2CC=C(c3cccc(C(F)(F)F)c3)n3cnc(C#N)c32)CC1.Cl.Cl [Example 14, 1,2-Dihydro-1-[[4-(2-propynyl)-1-piperazinyl]acetyl]-4-[3-(trifluoromethyl)phenyl]imidazo[1,5-a]pyrimidine-8-carbonitrile, dihydrochloride] |  | 129 | 
14 | N#Cc1ncn2c1N(C(=O)CCN1CCN(c3ccccc3)CC1)CC=C2c1cccc(C(F)(F)F)c1 [Example 17, 1,2-Dihydro-1-[1-oxo-3-(4-phenyl-1-piperazinyl]propyl]-4-[3-(trifluoromethyl)phenyl]imidazo[1,5-a]pyrimidine-8-carbonitrile] |  | 115 | 
15 | N#Cc1ncn2c1N(C(=O)CN1CCC(c3ccccc3)CC1)CC=C2c1cccc(C(F)(F)F)c1 [Example 25, 1,2-Dihydro-1-[(4-phenyl-1-piperidinyl)acetyl]-4-[3-(trifluoromethyl)phenyl]imidazo[1,5-a]pyrimidine-8-carbonitrile] |  | 137 | 
16 | N#Cc1ncn2c1N(C(=O)CCN1CCN(Cc3c(Cl)cccc3Cl)CC1)CC=C2c1cccc(C(F)(F)F)c1 [Example 23, 1-[4-[4-[(2,6-Dichlorophenyl)methyl]-1-piperazinyl]-1-oxopropyl]-1,2-dihydro-4-[3-(trifluoromethyl)phenyl]imidazo[1,5-a]pyrimidine-8-carbonitrile] | 98 |  | 
17 | N#Cc1ncn2c1N(C(=O)CCN1CCN(Cc3ccc(Cl)cc3)CC1)CC=C2c1cccc(C(F)(F)F)c1 [Example 20, 1-[3-[4-[(4-Chlorophenyl)methyl]-1-piperazinyl]-1-oxopropyl]-1,2-dihydro-4-[3-(trifluoromethyl)phenyl]imidazo[1,5-a]pyrimidine-8-carbonitrile] | 75 | 128 | 
18 | COc1cccc(CN2CCN(CC(=O)N3CC=C(c4cccc(C(F)(F)F)c4)n4cnc(C#N)c43)CC2)c1 [Example 5, 1,2-Dihydro-1-[[4-[(3-methoxyphenyl)methyl]-1-piperazinyl]acetyl]-4-[3-(trifluoromethyl)phenyl]imidazo[1,5-a]pyrimidine-8-carbonitrile] |  |  | % Inhibition of [^3 H]-imipramine binding [2]: 81%
